From patent US12673115B2, “Nucleic acid-peptide-nucleic acid conjugate molecules and methods of making the same” (ARIZONA BOARD OF REGENTS ON BEHALF OF ARIZONA STATE …, priority 2021, dated 2026)
Square brackets hold non-standard residues; d marks the D form. Primed or numbered codes have the meaning given here. Lys(N3) = [N-]=[N+]=NCCCC[C@H](N)C(=O)O; prA″ = not defined here

What was measured:
integrin = settings: cyclic conformation approximating presentation on fibronectin; cited from earlier work
[1] = target: T1, human matrix metalloproteinase 8 (MMP8) (Homo sapiens, UniProt P22894); assay: Cleavage of peptide-linked DX tile dimer by MMP8, native PAGE; assay type: biochemical; settings: 4 ng protein, incubation for 48 h at 37° C. in PBS
T1 construct: purchased PerkinElmer
Excerpt: As previously mentioned, one of our goals for these DPD triblock molecules is to use them as enzymatically-cleavable latches for a DNA nanostructure, e.g. to close the lid of a DNA origami box or “nano-bot”. To probe this effect, we used our DPD triblock to link together two model DNA nanostructures: double crossover (“DX” tiles), defined nanoscale objects 14 nm in length and 4 nm wide. DX tiles are composed of five unique strands—two edge strands, one central strand, and two crossover strands—and we designed two tiles that would have DNA1 and DNA2 as respective crossover strands (see FIG. 3A and Examples for tile design and strand composition). We surmised that upon annealing (95-4° C., over 2 h) the constituent strands for these tiles with the DNA1-MMPpep-DNA2 conjugate both tiles would form simultaneously, with the full hybridization of DNA1 and DNA2 into the corresponding tiles breaking the DPD hairpin. Addition of MMP8 to the DX tile dimer should cleave MMPpep, and restore the two separate DNA nanostructures.
We probed this system by native (non-denaturing) PAGE, FIG. 3A. Lanes 1 and 2 show the annealed DX tile with DNA2 incorporated, and the second DX tile with DNA1-MMPpep-(prA) respectively. […]
Polyacrylamide gel electrophoresis (PAGE). […] DX tiles were analyzed using 6% native polyacrylamide gels, with 1×TAE containing 12.5 mM Mg^2+ as a running buffer, at 200 V for 160 min.

T1 sequence (P22894 101-467): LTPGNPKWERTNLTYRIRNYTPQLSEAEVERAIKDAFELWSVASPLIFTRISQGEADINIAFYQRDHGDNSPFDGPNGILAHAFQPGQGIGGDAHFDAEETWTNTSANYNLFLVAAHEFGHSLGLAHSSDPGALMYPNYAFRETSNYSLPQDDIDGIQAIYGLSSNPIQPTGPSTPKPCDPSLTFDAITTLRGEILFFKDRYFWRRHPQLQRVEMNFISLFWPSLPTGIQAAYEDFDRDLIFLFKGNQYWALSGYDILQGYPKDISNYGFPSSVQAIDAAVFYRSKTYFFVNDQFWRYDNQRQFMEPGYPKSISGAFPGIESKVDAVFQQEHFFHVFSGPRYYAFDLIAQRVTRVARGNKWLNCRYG

Substance	increase in binding efficiency on constraining in a cyclic conformation (integrin)	cleavage of DX tile dimer to individual tiles after addition of MMP8 [1]
RGDS	several orders of magnitude	–
(prA)GQGIPQGWGG(azK) ({prA″}-GQGIPQGWGG[Lys(N3)]-NH2; not fully specified; printed as (prA)GQGIPQGWGG(azK); reading uncertain) [MMPpep-scram, tested as linker of a tile dimer]	–	did not show any cleavage to individual tiles
